# Values joined by “and” are separate entries in the source; they are usually repeats but may differ in a detail not shown here. Equal entries are not always repeated. Where two headings read alike, the source gives them in different places.
# Key:
# [1] = system: Mycobacterium tuberculosis; assay: Compounds tested against Mycobacterium tuberculosis (MIC90); type: cell-based; settings: read-out: M. tb. MIC90
# Aspergillus fumigatus = assay: Anti-fungal data: Aspergillus fumigatus; type: cell-based; settings: for MIC: strain DUMC 168.95, read-out: Aspergillus. Fumigatus (DUMC 168.95) MIC100
# [2] = system: L. donovani axenic amastigotes; assay: In vitro anti-leishmania activity (IC50 vs. L. donovani axenic amastigotes); type: cell-based; settings: for IC50: Leishmania donovani; for selectivity for axenic amastigotes over J774 macrophages (fold more active against the parasites compared to the mammalian host cells): L. donovani vs. J774 macrophages
# Trypanosoma cruzi = assay: Anti-protozoan data: T. cruzi IC50; type: cell-based; settings: read-out: T. cruzi IC50
# Plasmodium falciparum = assay: Anti-protozoan data: P. falcip. IC50; type: cell-based; settings: read-out: P. falcip. IC50
# Cryptococcus neoformans = assay: Anti-fungal data: Cryptococcus neoformans; type: cell-based; settings: for MFC / MIC80: strain H99; for MIC: strain H99, read-out: Cryptococcus neoformans (H99) MIC100
# J774 macrophages = assay: Toxicity against J774 macrophages (IC50); type: cell-based; settings: Mus musculus, Tables I-III, V
# [3] = system: Trypanosoma brucei rhodesiense; assay: Anti-protozoan data: T.b.r. IC50; type: cell-based; settings: read-out: T.b.r. IC50
# Candida albicans = assay: Anti-fungal data: Candida albicans; type: cell-based; settings: for MFC / MIC80: strain A39; for MIC: strain A39, read-out: Candida albicans (A39) MIC100
# DNA = DNA binding ΔTm; settings: Tables VI(a), VI(c)
# [4] = Tables VI(a), VI(c), read-out: Leishmania donovani IC50
# [5] = axenic amastigotes, Tables I-V, read-out: IC50 vs. L. donovani
Structure (SMILES),MIC90 [1],MIC80 (Aspergillus fumigatus; strain DUMC 168.95),MIC (Aspergillus fumigatus),"IC50 [2, 4]","IC50 [2, 5]","IC50 (Trypanosoma cruzi; Tables VI(a), VI(c))","IC50 (Plasmodium falciparum; Tables VI(a), VI(c))",MFC (Cryptococcus neoformans),MIC80 (Cryptococcus neoformans),MIC (Cryptococcus neoformans),IC50 (J774 macrophages),"IC50 ([3]; Tables VI(a), VI(c))",IC50 (in vitro),MFC (Candida albicans),MIC80 (Candida albicans),MIC (Candida albicans),melting point,further results
"Cl.Cl.N=C(N)c1ccc(OCCCCCCOc2ccc(-c3cc4cc(C(=N)N)ccc4o3)cc2)cc1 [Compound 53, 2-(4-(6-(4-Carbamimidoylphenoxy)hexyloxy)phenyl)benzofuran-5-carboxamidine dihydrochloride]",3.74 µg/mL and 6.84 µM,12.5 µg/mL,> 100 µg/mL,650 ± 170 nM,650 ± 170 nM,6210 nM,263 nM,6.25 µg/mL,1.56 µg/mL,3.12 µg/mL,600 ± 70 nM,368 nM,3290 nM,3.12 µg/mL,1.56 µg/mL,3.12 µg/mL,310 to 311 °C,–
"Cl.Cl.N=C(N)c1ccc2oc(CCc3cc4cc(C(=N)N)ccc4o3)cc2c1 [Compound 8, 2-(2-(5-Amidinobenzofuran-2-yl)ethyl)benzofuran-5-carboxamidine dihydrochloride]",5.15 µg/mL and 11.6 µM,> 100 µg/mL,> 100 µg/mL,1060 ± 180 nM,1060 ± 180 nM,12300 nM,2.5 nM,100 µg/mL,100 µg/mL,100 µg/mL,15000 ± 1000 nM,7.9 nM,21500 nM,100 µg/mL,100 µg/mL,100 µg/mL,–,DNA binding Δ Tm (DNA): 6.1; selectivity for axenic amastigotes over J774 macrophages (fold more active against the parasites compared to the mammalian host cells) [2]: 14 fold
"CC(C)NC(=N)c1ccc(OCCCCCOc2ccc(-c3cc4ccc(C(=N)NC(C)C)cc4o3)cc2)cc1.Cl.Cl [Compound 75, 2-(4-(5-(4-(N-Isopropylcarbamimidoyl)phenoxy)pentyloxy)phenyl)-N-isopropylbenzofuran-6-carboxamidine dihydrochloride]",1.19 µg/mL and 1.92 µM,–,–,1380 ± 180 nM,1380 ± 180 nM,8920 nM,74.4 nM,–,–,–,2700 ± 100 nM,557 nM,10700 nM,–,–,–,255 to 257 °C,–
"Cl.Cl.c1cc(C2=NCCN2)ccc1OCCCOc1ccc(-c2cc3ccc(C4=NCCN4)cc3o2)cc1 [Compound 70, 2-(2-(4-(3-(4-(4,5-Dihydro-1H-imidazol-2-yl)phenoxy)propoxy)phenyl)benzofuran-6-yl)-4,5-dihydro-1H-imidazole dihydrochloride]",0.86 µg/mL and 1.5 µM,–,–,480 ± 160 nM,480 ± 160 nM,7110 nM,41.8 nM,–,–,–,2400 ± 100 nM,144 nM,16800 nM,–,–,–,283 to 284 °C,selectivity for axenic amastigotes over J774 macrophages (fold more active against the parasites compared to the mammalian host cells) [2]: 5 fold
"Cl.Cl.N=C(N)c1ccc(OCCCOc2ccc(-c3cc4cc(C(=N)N)ccc4o3)cc2)cc1 [Compound 44, 2-(4-(3-(4-Carbamimidoylphenoxy)propoxy)phenyl)benzofuran-5-carboxamidine dihydrochloride]",0.45 µg/mL and 0.86 µM,10 µg/mL,> 100 µg/mL,–,780 ± 210 nM,–,–,–,–,–,2700 ± 300 nM,–,7320 nM,10 µg/mL,≤ 1 µg/mL,≤ 1 µg/mL,287 to 289 °C,DNA binding Δ Tm (DNA): 18.7; IC50 (Trypanosoma cruzi): 16900 nM; IC50 (Plasmodium falciparum): 41.4 nM; IC50 [3]: 450 nM
"Cl.Cl.N=C(N)c1ccc(OCCCCCOc2cccc(-c3cc4ccc(C(=N)N)cc4o3)c2)cc1 [Compound 62, 2-(3-(5-(4-Carbamimidoylphenoxy)pentyloxy)phenyl)benzofuran-6-carboxamidine dihydrochloride]",0.65 µg/mL and 1.15 µM,1.56 µg/mL,3.12 µg/mL,5750 ± 60 nM,5750 ± 60 nM,8560 nM,282 nM,0.78 µg/mL,0.39 µg/mL,0.39 µg/mL,5600 ± 300 nM,531 nM,4120 nM,1.56 µg/mL,0.39 µg/mL,0.39 µg/mL,178 to 182 °C,MFC (Aspergillus fumigatus; strain DUMC 168.95): > 100 µg/mL
"CC(C)NC(=N)c1ccc(OCCCCCCOc2ccc(-c3cc4ccc(C(=N)NC(C)C)cc4o3)cc2)cc1.Cl.Cl [Compound 78, 2-(4-(6-(4-(N-Isopropylcarbamimidoyl)phenoxy)hexyloxy)phenyl)-N-isopropylbenzofuran-6-carboxamidine dihydrochloride]",2.11 µg/mL and 3.33 µM,–,–,2620 ± 350 nM,2620 ± 350 nM,3480 nM,51.9 nM,–,–,–,730 ± 30 nM,884 nM,4900 nM,–,–,–,264 to 268 °C,–

# Source: patent publication US20080114047A1 (priority 2003, published 2008)
